Values of other authors as cited in US20130230592A1, “NOVEL OMEGA-3 AND OMEGA-6 FATTY ACID COMPOSITIONS AND USES THEREOF” (priority 2010, published 2013).

Conditions: after oral intake of 750 mg EPA

plasma level: about 417 μmol/L
Compound: CCC=CCC=CCC=CCC=CCC=CCCCC(=O)O [EPA, eicosa-5,8,11,14,17-pentaenoic acid]
